Data reported in ChEMBL document CHEMBL4007425, “Drug Repurposing of Histone Deacetylase Inhibitors That Alleviate Neutrophilic Inflammation in Acute Lung Injury and Idiopathic Pulmonary Fibrosis via Inhibiting Leukotriene A4 Hydrolase and Blocking LTB4 Biosynthesis” (J Med Chem, 2017).
Active and inactive are the calls of the source. No cut-off for these calls is given here.

Columns and labels:
[1] = biological target: T1, Leukotriene A-4 hydrolase (Mus musculus, UniProt P24527); assay: Inhibition of LTA4H in C57BL/6 mouse assessed as reduction in LTB4 production pre-incubated for 30 mins before 5-(methylamino)-2-({(2R,3R,6S,8S,9R,11R)-3,9,11-trimethyl-8-[(1S)-1-methyl-2-oxo-2-(1H-pyrrol-2-yl)ethyl]-1,7-dioxaspiro[5.5]undec-2-yl}methyl)-1,3-benzoxazole-4-carboxylic acid stimulation for 30 mins by ELISA
T1 sequence (P24527 whole entry): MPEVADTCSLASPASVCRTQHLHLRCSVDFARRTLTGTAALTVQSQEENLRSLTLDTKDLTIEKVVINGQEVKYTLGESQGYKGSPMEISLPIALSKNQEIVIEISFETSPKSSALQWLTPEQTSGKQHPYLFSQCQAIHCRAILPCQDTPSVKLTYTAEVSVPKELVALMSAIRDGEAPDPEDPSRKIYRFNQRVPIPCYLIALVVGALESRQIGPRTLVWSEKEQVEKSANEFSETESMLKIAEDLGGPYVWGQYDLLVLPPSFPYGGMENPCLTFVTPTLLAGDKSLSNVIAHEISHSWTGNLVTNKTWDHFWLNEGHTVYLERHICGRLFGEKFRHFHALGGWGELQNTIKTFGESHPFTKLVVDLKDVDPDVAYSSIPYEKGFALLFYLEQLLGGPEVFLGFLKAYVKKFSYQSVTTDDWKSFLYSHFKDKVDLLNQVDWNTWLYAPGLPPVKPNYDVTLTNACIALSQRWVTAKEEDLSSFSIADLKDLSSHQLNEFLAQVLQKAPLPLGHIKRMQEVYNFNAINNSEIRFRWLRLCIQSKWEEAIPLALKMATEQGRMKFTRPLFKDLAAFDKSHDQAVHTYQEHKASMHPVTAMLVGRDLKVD

[2] = biological target: T2, Leukotriene A-4 hydrolase (Homo sapiens, UniProt P09960); assay: Inhibition of recombinant human LTA4H Epoxide Hydrolase expressed in Escherichia coli BL21 (DE3) pLysS preincubated for 10 mins followed by addition of LTA4 as substrate measured after 15 mins by reverse-phase HPLC analysis
T2 sequence (P09960 whole entry): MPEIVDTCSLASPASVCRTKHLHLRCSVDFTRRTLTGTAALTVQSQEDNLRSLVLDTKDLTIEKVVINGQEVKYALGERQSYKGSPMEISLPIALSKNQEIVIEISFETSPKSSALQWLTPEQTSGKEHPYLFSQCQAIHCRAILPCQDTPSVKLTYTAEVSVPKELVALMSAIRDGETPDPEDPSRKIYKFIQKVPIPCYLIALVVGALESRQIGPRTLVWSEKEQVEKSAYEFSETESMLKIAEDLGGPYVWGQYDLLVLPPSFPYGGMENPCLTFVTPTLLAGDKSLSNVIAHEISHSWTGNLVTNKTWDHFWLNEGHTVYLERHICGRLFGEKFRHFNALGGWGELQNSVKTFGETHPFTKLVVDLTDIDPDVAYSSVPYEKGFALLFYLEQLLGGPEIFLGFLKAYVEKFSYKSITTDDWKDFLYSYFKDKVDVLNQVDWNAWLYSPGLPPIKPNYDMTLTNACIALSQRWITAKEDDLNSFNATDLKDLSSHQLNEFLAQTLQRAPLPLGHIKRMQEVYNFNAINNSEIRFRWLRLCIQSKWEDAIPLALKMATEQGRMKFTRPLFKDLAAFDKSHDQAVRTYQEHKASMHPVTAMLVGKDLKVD

[3] = biological target: T3, Polyunsaturated fatty acid lipoxygenase ALOX12 (Homo sapiens) (UniProt P18054); assay: Inhibition of recombinant human N-terminal His-tagged 12-LOX expressed in Escherichia coli assessed as conversion of arachidonic acid to HETEs measured for 300 secs by UV-visible spectrophotometric analysis
T3 sequence (whole entry): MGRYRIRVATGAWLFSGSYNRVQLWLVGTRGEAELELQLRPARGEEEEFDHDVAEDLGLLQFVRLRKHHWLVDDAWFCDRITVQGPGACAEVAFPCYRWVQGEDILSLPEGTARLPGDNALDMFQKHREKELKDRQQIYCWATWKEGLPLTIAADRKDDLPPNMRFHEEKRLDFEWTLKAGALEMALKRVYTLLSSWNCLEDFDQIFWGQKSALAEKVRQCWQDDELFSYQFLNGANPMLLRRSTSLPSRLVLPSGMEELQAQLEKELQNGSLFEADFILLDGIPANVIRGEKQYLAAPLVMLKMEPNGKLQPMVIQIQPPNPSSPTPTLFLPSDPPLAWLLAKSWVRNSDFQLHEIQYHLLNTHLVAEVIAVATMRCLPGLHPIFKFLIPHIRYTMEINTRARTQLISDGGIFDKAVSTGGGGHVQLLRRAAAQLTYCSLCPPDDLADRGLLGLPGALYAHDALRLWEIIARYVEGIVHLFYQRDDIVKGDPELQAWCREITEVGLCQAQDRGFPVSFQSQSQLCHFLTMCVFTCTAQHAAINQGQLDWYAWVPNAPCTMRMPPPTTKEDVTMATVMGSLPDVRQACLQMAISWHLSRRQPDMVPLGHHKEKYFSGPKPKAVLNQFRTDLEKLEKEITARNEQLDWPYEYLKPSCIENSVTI

Mus musculus [4] = assay: Anti-inflammatory activity in LPS-induced C57BL/6 mouse model of acute lung injury assessed as reduction MPO activity at 25 mg/kg, ip pretreated for 1 hr followed LPS challenge measured after 24 hrs; assay type: functional, organism-based
Mus musculus [5] = assay: Anti-inflammatory activity in LPS-induced C57BL/6 mouse model of acute lung injury assessed as reduction in protein concentration in BALF at 25 mg/kg, ip pretreated for 1 hr followed LPS challenge measured after 24 hrs; assay type: functional, organism-based
Mus musculus [6] = assay: Anti-inflammatory activity in BLM-induced C57BL/6 mouse model of acute lung injury assessed as reduction in IL-1beta mRNA level in BALF compound administered intraperitoneally once daily for 7 days post BLM challenge measured on day 7 by qRT-PCR method; assay type: functional
Mus musculus [7] = assay: Anti-inflammatory activity in LPS-induced C57BL/6 mouse model of acute lung injury assessed as reduction in pulmonary edema by measuring lung wet/dry ratio at 25 mg/kg, ip pretreated for 1 hr followed LPS challenge after 24 hrs […]; assay type: functional, organism-based
[8] = biological target: T4, Leukotriene A-4 hydrolase (LTA4H) aminopeptidase activity (Homo sapiens, UniProt P09960); assay: Inhibition of recombinant human LTA4H aminopeptidase activity expressed in Escherichia coli BL21 (DE3) pLysS assessed as formation of p-NA from Ala-p-NA at 10 uM preincubated for 10 mins followed by substrate addition measured after 10 mins
T4 sequence (P09960 whole entry): T2 sequence (P09960 whole entry)

Mus musculus [9] = assay: Anti-inflammatory activity in BLM-induced C57BL/6 mouse model of acute lung injury assessed as reduction in IL-6 mRNA level in BALF compound administered intraperitoneally once daily for 7 days post BLM challenge measured on day 7 by qRT-PCR method; assay type: functional

Structure (SMILES) | IC50 [1] [µM] | IC50 [2] [µM] | INH [3] [µM] | Activity (Mus musculus [4]) | Activity (Mus musculus [5]) | Activity (Mus musculus [6]) | Activity (Mus musculus [7]) | inhibition at 10 min, 10 µM ([8]; probe Ala-p-NA) [%] | Activity (Mus musculus [9]) | inhibition at 10 min, 10 µM [8] [%]
CN(C)c1ccc(C(=O)NCCCCCCC(=O)NO)cc1 | 0.79 | 0.68 | > 50 | Active | Active | Dose-dependent effect | Active | > 50 | Dose-dependent effect | 
O=C(CCCCCCC(=O)Nc1ccccc1)NO [VORINOSTAT] | 6.15 | 7.65 | > 50 | Active | Active | Dose-dependent effect | Active |  | Dose-dependent effect | > 50
